Experimental data taken from patent US12435067B2, “Truncated itraconazole analogues and methods of use thereof” (University of Connecticut, priority 2019, dated 2025).
Values after ≈ are worked out from the molar mass of the structure shown. Read-outs that look alike come from different tables or passages of the source.

Key:
[1] = tested on: Gli1 mRNA expression in the Hh-dependent murine BCC cell line ASZ001; test: Hh inhibition: Gli1 mRNA expression in ASZ001 cells (qPCR); format: cell-based; details: for IC50: ASZ001 cells
Method: In order to continue SAR exploration of this region of the scaffold, efforts sought to synthesize and evaluate analogues that continue the scaffold truncation that was previously probed by removing the phenyl ring on the ‘right side’ of the scaffold and directly appending the 3-phenolic carboxylic acid of 2 to the piperazine amine to provide analogue 3. This analogue was evaluated for its ability to decrease Gli1 mRNA expression in the Hh-dependent murine BCC cell line ASZ001.
(§1) General protocols for cell culture, qPCR, and Hh inhibition in ASZ001 cells, C3H10T1/2 cells, and Sufu^−/− MEFs cells are as previously described (Pace et al. “Repurposing the clinically efficacious antifungal agent itraconazole as an anticancer chemotherapeutic. J. Med. Chem. 2016, 59, 3635-3649; Maschinot et al. “Synthesis and evaluation of third generation vitamin D3 analogues as inhibitors of Hedgehog signaling.” Eur. J. Med. Chem. 2019, 162, 495-506.). HC-04 cells were maintained in Dulbecco's modified Eagle's medium (Gibco Life Technologies) supplemented with 10% heat-inactivated fetal bovine serum (Gibco) and 1% pen-strep (Gibco) at 37° C. in 5% CO2. Cells were split 1:5 every 2-3 days, once they reached ˜80% confluency. Antiproliferation assay against HC-04 cells was using MTS method. The general protocol was the same as described earlier. (Banerjee et al. “Evaluation of vitamin D3 A-ring analogues as hedgehog pathway inhibitors.” Bioorg. Med. Chem. Lett. 2012, 22, pp. 1330-1334.) All data were analyzed with GraphPad Prism 5 and reported values represent the mean±SEM for at least two separate experiments carried out in triplicate for qPCR assay; or performed for at least three separate experiments carried out in quadruplicate for MTS assay.

[2] = Microsomal stability in human liver microsomes; details: for Microsomal Stability T1/2 / Microsomal Stability Clint / half-life / microsomal CLint: human liver microsomes; for Microsomal Stability Clint: predicted intrinsic clearance; for half-life / microsomal CLint: human
in vitro = format: cell-based, human; details: human
Method: (§2) The activity for both metabolites prompted a study of their PK profile (Table 3). […] In addition, significant improvements in solubility at pH 7.4 and pH 4.0 compared to ITZ were found for analogue 21. Finally, the general toxicity of compounds 11 and 21 were evaluated by exploring their anti-proliferative activity in HC-04 cells, a human hepatocyte-derived cell line that abundantly expresses drug metabolizing enzymes (Table 5).
as §1

HC-04 cells = test: in vitro; format: cell-based, human
Method: as §2, §1

[3] = tested on: Gli1 mRNA in the Hh-dependent mouse embryonic fibroblast C3H10T1/2 cell line; test: Gli1 mRNA down-regulation in C3H10T1/2 cells (qPCR); format: cell-based; details: Mean ± SEM
Method: (§3) Both metabolites retain potent inhibition of Hh signaling (Table 3). […] Based on the improved activity of the truncated analogue 21, which contains approximately half of the intact ITZ scaffold, this analogue was also evaluated in Sufu^−/− mouse embryonic fibroblasts (MEFs) to determine whether Smo is still the most likely target of the metabolite.
as §1

[4] = tested on: Sufu−/− mouse embryonic fibroblasts (MEFs); test: Hh inhibition in Sufu−/− MEFs; format: cell-based
Method: as §3
General protocols for cell culture, qPCR, and Hh inhibition in ASZ001 cells, C3H10T1/2 cells, and Sufu^−/− MEFs cells are as previously described (Pace et al. “Repurposing the clinically efficacious antifungal agent itraconazole as an anticancer chemotherapeutic. J. Med. Chem. 2016, 59, 3635-3649; Maschinot et al. “Synthesis and evaluation of third generation vitamin D3 analogues as inhibitors of Hedgehog signaling.” Eur. J. Med. Chem. 2019, 162, 495-506.). […] (Banerjee et al. “Evaluation of vitamin D3 A-ring analogues as hedgehog pathway inhibitors.” Bioorg. Med. Chem. Lett. 2012, 22, pp. 1330-1334.) All data were analyzed with GraphPad Prism 5 and reported values represent the mean±SEM for at least two separate experiments carried out in triplicate for qPCR assay; or performed for at least three separate experiments carried out in quadruplicate for MTS assay.

[5] = human, microsomes
[6] = Mus musculus, Gli1 mRNA expression, Mean ± SEM of at least two experiments in triplicate, read-out: ASZ001, IC50
[7] = C3H 10T1/2, Gli1 expression up-regulated by recombinant mouse sonic hedgehog (SHh), read-out: C3H10T1/2, IC50, SHh
[8] = Mus musculus, C3H 10T1/2, Gli1 expression up-regulated by oxysterols (OHCs), read-out: C3H10T1/2, IC50, OHCs
[9] = Gli1 mRNA expression, Mean ± SEM of at least two experiments in triplicate, read-out: ASZ001, IC50

## C[C@]1(c2ccc(Cl)cc2Cl)OC[C@@H](COc2ccc(N3CCN(C(=O)c4cccc(O)c4)CC3)cc2)O1 [Compound 3]
[1]; [6]
  IC50: 260 nM
[2]
  Microsomal Stability T1/2: 15.9 ± 0.2 min
  Microsomal Stability Clint: 43 ± 0.6 µL/min/mg
PBS solubility
  Solubility, PBS pH 4.0: 0.31 μM
  Solubility, PBS pH 7.4: 0.17 μM

## C[C@]1(c2ccc(Cl)cc2Cl)OC[C@@H](COc2ccc(N3CCN(C(=O)c4ccc(O)cc4)CC3)cc2)O1 [Compound 4]
[1]; [6]
  IC50: 580 nM

## C[C@]1(c2ccc(Cl)cc2Cl)OC[C@@H](COc2ccc(N3CCN(C(=O)c4ccccn4)CC3)cc2)O1 [Compound 5]
[1]; [6]
  IC50: 1420 ± 300 nM

## C[C@]1(c2ccc(Cl)cc2Cl)OC[C@@H](COc2ccc(N3CCN(C(=O)c4cccnc4)CC3)cc2)O1 [Compound 6]
[1]; [6]
  IC50: 1300 ± 310 nM

## C[C@]1(c2ccc(Cl)cc2Cl)OC[C@@H](COc2ccc(N3CCN(C(=O)c4ccncc4)CC3)cc2)O1 [Compound 7]
[1]; [6]
  IC50: 570 nM

## C[C@]1(c2ccc(Cl)cc2Cl)OC[C@@H](COc2ccc(N3CCN(C(=O)c4ccc([N+](=O)[O-])cc4)CC3)cc2)O1 [Compound 8]
[1]; [6]
  IC50: 160 nM

## C[C@]1(c2ccc(Cl)cc2Cl)OC[C@@H](COc2ccc(N3CCN(C(=O)c4ccc(N)cc4)CC3)cc2)O1 [Compound 9]
[1]; [6]
  IC50: 280 nM

## C[C@]1(c2ccc(Cl)cc2Cl)OC[C@@H](COc2ccc(N3CCN(C(=O)Cc4cccc(O)c4)CC3)cc2)O1 [Compound 10]
[1]; [6]
  IC50: 380 ± 40 nM
[2]; 10 compared with 11, human liver microsomes
  more stable (HLM stability): approximately 6.5 fold
[2]
  Microsomal Stability T1/2: 20.4 ± 0.4 min
  Microsomal Stability Clint: 33.9 ± 0.6 µL/min/mg
PBS solubility
  Solubility, PBS pH 4.0: 0.25 μM
  Solubility, PBS pH 7.4: 0.13 μM

## C[C@]1(c2ccc(Cl)cc2Cl)OC[C@@H](COc2ccc(N3CCN(C(=O)CCc4cccc(O)c4)CC3)cc2)O1 [Compound 11]
In vitro
  GI50: 13200 ± 500 nM
HC-04 cells; human
  GI50: 13200 nM
[1]; Mus musculus, read-out: IC50 value (anti-Hh activity)
  IC50: 81 nM
[1]; [6]
  IC50: 81 nM
[3]; [7]
  IC50: 170 ± 90 nM
[3]; [8]
  IC50: 650 ± 70 nM
[2]
  Microsomal Stability T1/2: 3.2 min
  Microsomal Stability Clint: 218 ± 9.7 µL/min/mg
PBS solubility
  Solubility, PBS pH 4.0: 0.13 μM
  Solubility, PBS pH 7.4: 0.03 μM

## C[C@]1(c2ccc(Cl)cc2Cl)OC[C@@H](COc2ccc(N3CCN(C(=O)/C=C/c4cccc(O)c4)CC3)cc2)O1 [Compound 12]
[1]; [6]
  IC50: 220 ± 30 nM
[1]; trans-alkene 12 compared with 11, ASZ001
  loss in Hh inhibitory activity: approximately 3 fold

## C[C@]1(c2ccc(Cl)cc2Cl)OC[C@@H](COc2ccc(N3CCN(C(=O)CCc4ccc(O)cc4)CC3)cc2)O1 [Compound 13]
[1]; [6]
  IC50: 260 ± 30 nM

## C[C@]1(c2ccc(Cl)cc2Cl)OC[C@@H](COc2ccc(N3CCN(C(=O)/C=C/c4ccc(O)cc4)CC3)cc2)O1 [Compound 14, 4-Hydroxy-N-(4-(4-(((2S,4R)-2-(2,4-Dichlorophenyl)-2-Methyl-1,3-Dioxolan-4-yl)Methoxy)Phenyl)Piperazin-1-yl)Cinnamamide]
[1]; [6]
  IC50: 360 ± 50 nM

## C[C@]1(c2ccc(Cl)cc2Cl)OC[C@@H](COc2ccc(N3CCN(C(=O)CCc4ccccc4)CC3)cc2)O1 [Compound 15]
[1]; [6]
  IC50: 230 nM

## COc1cccc(CCC(=O)N2CCN(c3ccc(OC[C@@H]4CO[C@](C)(c5ccc(Cl)cc5Cl)O4)cc3)CC2)c1 [Compound 16]
[1]; [6]
  IC50: 460 nM

## C[C@]1(c2ccc(Cl)cc2Cl)OC[C@@H](COc2ccc(N3CCN(C(=O)CCCc4ccc(O)cc4)CC3)cc2)O1 [Compound 17, 4-Hydroxy-N-(4-(4-(((2S,4R)-2-(2,4-Dichlorophenyl)-2-Methyl-1,3-Dioxolan-4-yl)Methoxy)Phenyl)Piperazin-1-yl)Phenylbutyric Amide]
[1]; [6]
  IC50: 470 nM

## C[C@@]1(c2ccc(Cl)cc2Cl)OCC(COc2ccc(N3CCN(C(=O)N/N=C/c4cccc(O)c4)CC3)cc2)O1 (some centres unmarked) [Compound 20]
[1]; 2R,4R-trans 20 compared with cis 18, ASZ001
  less active (Hh inhibition): approximately 5 fold
[1]; [6]
  IC50: 580 nM

## C[C@]1(c2ccc(Cl)cc2Cl)OC[C@@H](COc2ccc(N3CCNCC3)cc2)O1 [Compound 21, 1-(4-(((2S,4R)-2-(2,4-Dichlorophenyl)-2-Methyl-1,3-Dioxolan-4-yl)Methoxy)Phenyl)Piperazine]
HC-04 cells; human
  GI50: 27300 nM
[4]
  anti-Hh activity in Sufu−/− MEFs: completely abolished
[1]; [6]
  IC50: 22 nM
[3]; [7]
  IC50: 1530 ± 200 nM
[3]; [8]
  IC50: 2700 ± 200 nM
[2]
  Microsomal Stability T1/2: 50.7 min
  Microsomal Stability Clint: 13.7 ± 0.4 µL/min/mg
PBS solubility
  Solubility, PBS pH 4.0: 169.3 μM
  Solubility, PBS pH 7.4: 11.7 μM

## C[C@]1(c2ccc(Cl)cc2Cl)OCC(COc2ccc(N3CCN(C(=O)CCc4ccc(O)c(O)c4)CC3)cc2)O1 (some centres unmarked) [Compound 22]
[1]; [6]
  IC50: 89 nM
[2]
  half-life: 6.6 min
  microsomal CLint: 104.7 ± 0.1 µL/min/mg
PBS solubility; pH 7.4, aqueous buffer
  solubility: 0.84 µM (≈ 0.494 µg/mL)

## C[C@]1(c2ccc(Cl)cc2Cl)OCC(COc2ccc(N3CCN(CCCc4cccc(O)c4)CC3)cc2)O1 (some centres unmarked) [Compound 23]
[1]; [6]
  IC50: 870 nM
[2]
  half-life: 14 min
  microsomal CLint: 50 ± 0.8 µL/min/mg
PBS solubility; pH 4, aqueous buffer
  solubility: 0.13 µM (≈ 0.0725 µg/mL)
PBS solubility; pH 7.4, aqueous buffer
  solubility: 0.02 µM (≈ 0.0112 µg/mL)

## CS(=O)(=O)c1ccc(C(=O)Nc2ccc(Cl)c(-c3ccccn3)c2)c(Cl)c1 [Vismodegib, reference compound]
In vitro
  GI50: > 100000 nM
[3]; [7]
  IC50: 22 ± 20 nM
[3]; [8]
  IC50: 10 ± 12 nM

## Itraconazole [ITZ, reference compound]
HC-04 cells
  GI50: > 50000 nM
[5]
  Microsomal Stability T1/2: 27.0 ± 6.2 min
[1]; [9]
  IC50: 140 ± 20 nM
other
  Solubility, PBS pH 7.4: 0.80 μM
[3]; Gli1 expression up-regulated by oxysterols (OHCs), read-out: C3H10T1/2, IC50, OHCs
  IC50: 5900 ± 1300 nM
[3]; Gli1 expression up-regulated by recombinant mouse sonic hedgehog (SHh), read-out: C3H10T1/2, IC50, SHh
  IC50: 240 ± 200 nM

## N-(4-(4-(((2S,4R)-2-(2,4-Dichlorophenyl)-2-Methyl-1,3-Dioxolan-4-yl)Methoxy)Phenyl)Piperazin-l-yl)-2-((3-hydroxyphenyl)methylene)Hydrazinecarboxamide [Compound 18]
[1]; [9]
  IC50: 120 nM

## N-(4-(4-(((2S,4R)-2-(2,4-Dichlorophenyl)-2-Methyl-1,3-Dioxolan-4-yl)Methoxy)Phenyl)Piperazin-l-yl)-2-((4-hydroxyphenyl)methylene)Hydrazinecarboxamide [Compound 19]
[5]
  Microsomal Stability T1/2: 11.4 ± 0.2 min
[1]; [9]
  IC50: 960 nM
pH 4
  Solubility, PBS pH 4.0: 0.05 μM
other
  Solubility, PBS pH 7.4: 0.02 μM
